Literature values, collected in patent US7279573B2, “Amide derivatives” (Kaken Pharmaceutical Co., Ltd., priority 1997, dated 2007).

Legend:
[1] = human, in vivo
[2] = test system: growth hormone releasing; details: control compounds for pharmacophore development

| oral bioavailability [1] [%] | Molecule | growth hormone releasing activity (active/inactive) [2] |
| --- | --- | --- |
| 0.3 | GHRP-6 | – |
| – | CC(C)(N)CC(=O)N[C@H]1CCc2ccccc2N(Cc2ccc(-c3ccccc3-c3nn[nH]n3)cc2)C1=O [L-692,428] | inactive |
